From patent US20260191933A1, “PHARMACEUTICAL COMBINATIONS AND USES THEREOF” (The University of Melbourne, priority 2022, published 2026)

Assays:
diet-induced obese mice [1] = experiment: I.C.V. PZ6005 and/or S.C. liraglutide, 28 days: body weight, adiposity, food intake, energy expenditure; assay type: in vivo, C57BL/6j mice
Experimental: (§1) Metabolic measurements were undertaken in the Melbourne Mouse Metabolic Phenotyping Platform (The University of Melbourne, Australia). Glucose tolerance tests were performed on 6 h fasted conscious mice respectively by injecting D-glucose (2 mg/g of lean body mass and 1 mg/g lean mass for db/db and HFHS+STZ mice) into the peritoneal cavity and measuring glucose in tail blood immediately before and at 15, 30, 45, 60, 90 and 120 min after injection using an Accu-Check glucometer (Roche, Germany). The areas under glucose excursion curves were determined and expressed as mmol/l×min. Fasted (12 h fast) plasma insulin or glucose levels were determined using a Rat/Mouse Insulin ELISA (EZRMI-13K, Merck Millipore, CA) or an Accu-Check glucometer respectively. The HOMA-IR was calculated using the equation [(glucose×insulin)/405]. Adiposity was measured using TD-NMR minispec (Bruker Optics Inc., Billerica, MA).
Mice were acclimated for 24 h and then monitored for 48 h in an environmentally controlled Promethion Metabolic Screening System (Sable Systems International, NV) fitted with indirect open circuit calorimetry, food consumption and activity monitors to measure activity, caloric intake and energy expenditure. Respiratory quotients were calculated as the ratio of CO2 production over O2 consumption respiratory exchange ratio and energy expenditure was calculated using the Weir equation (Kcal h−1=60×(0.003941×VO2+0.001106×VCO2). To account for difference in body mass/composition energy expenditure was analysed and adjusted using ANCOVA using scripts available at the National Mouse Metabolic Phenotyping Centers (MMPC, Nashville, TN, USA) Energy Expenditure Analysis Page (https://www.mmpc.org/shared/regression.aspx).

[2] = tested on: 12-week obese AgRP-Cas9 mice; experiment: I.C.V. fluorosamine in obese AgRP-Cas9 mice given AAV-gScrambled or AAV-gIR; assay type: in vivo
Experimental: To disassemble the CSPG-ECM within the ARC, mice received bilaterally (unless stated otherwise) administration of 15 mU/side of active chABC (C3667, Sigma, St. Louis, […], dissolved in 1 M trehalose) or heat-inactivated chABC protein as a vehicle (chABC in 1 M trehalose was heat-inactivated at 85° C. for 45 mins, as described previously by Alonge et al., 2020) in a total volume of 150 nl/side. To pulse the CSPG-ECM within the ARC or RSG, mice received bilateral (unless stated otherwise) administration of biotinylated WFA (0.3 μg/side, in a volume of 150 nl). To disrupt IR in AgRP neurons, 12-week HFHS fed AgRP-Cas9 mice were stereotaxically injected with AAVs expressing U6-driven guide RNA's targeting the InsR gene or a scrambled sequence (5′ GTGTAGTTCGACCATTCGTG ′3 (SEQ ID NO: 14)) alongside a CAG driven mCherry FLEX switch. Unless otherwise stated injections were bilaterally into the ARC (coordinates, bregma: anterior-posterior, −1.70 mm; dorsal-ventral, −5.85 mm; lateral, +/−0.18 mm, 200 nl/side) or into the RSG (coordinates, bregma: anterior-posterior, −1.40 mm; dorsal-ventral, −1.80 mm; lateral, +/−0.50 mm, 200 nl/side). WFA-biotin was injected unilaterally into the cc (coordinates, bregma: anterior-posterior, −1.40 mm; dorsal-ventral, −5.80 mm; lateral, +/−0.20 mm, 200 nl/side)
To generate AAV-gScrambled (pAAV-U6>mScramble-[…] (SEQ ID NO: 14))-CAG>LL:rev(mCherry):rev(LL):WPRE) and AAV-gIR (pAAV[-U6>mInsr[gRNA-[…] (SEQ ID NO: 15)]-U6>mInsr[gRNA-[…] (SEQ ID NO: 16)]-CAG>LL:rev(mCherry):rev(LL):WPRE) viral vectors, sgRNAs were first designed using online CRISPR tools (http://crispr.mit.edu and http://chopchop.cbu.uib.no/). […] For AAV-gScrambled a pUp-U6>Scramble gRNA vector was generated using the Gibson assembly of a pDONR P4-P1R backbone and primers 5′ […] ′3 (SEQ ID NO: 17) and 5′ […] ′3 (SEQ ID NO: 18). For AAV-gIR a pUp-U6>mInsr[gRNA-[…] (SEQ ID NO: 15)]-U6>mInsr[gRNA-[…] (SEQ ID NO: 16)] gRNA vector was generated using the Gibson assembly of a AarI digested pUp-U6-gRNA-AarI-Stuffer-AarI backbone and primers 5′ […] ′3 (SEQ ID NO: 19) and 5′ […] ′3 (SEQ ID NO: 20). For both AAV-gScrambled and AAV-gIR the p-Up vectors were cloned alongside pDown-CAG and pTail-LL:rev(mCherry):rev(LL) to generate the final vectors by LR reaction using the Gateway method. AAV vectors were packaged into the AAV-DJ/8 steotype at a titre of >2 10^13 GC/ml). All vector cloning and AAV packaging was carried out by VectorBuilder (Chicago, IL).
(§2) Under isoflurane anaesthetic 12-week HFHS fed C57BL/6J or AgRP-Cas9 mice were implanted stereotaxically with guide cannulas into the right lateral ventricle (0.2 mm posterior, 1.0 mm lateral from bregma). Guide cannula was positioned 1.3 mm above the injection site (1 mm ventral to the surface of the skull). AgRP-Cas9 mice were treated with either AAV-gScrambled or AAV-gIR and underwent guide cannula placement 7 days post AAV administration. Mice were administered I.C.V. vehicle (ddH2O), fluorosamine (100 μg/animal/day or 250 μgl/animal/day) in a volume of 2 μl/animal and all compounds were delivered approximately 1 h before lights off (7 pm).

CSPG-ECM (neurofibrosis) = experiment: I.C.V. fluorosamine in obese mice: CSPG-ECM expression (WFA immunostaining); assay type: in vivo, C57BL/6J mice
Experimental: All image quantification was performed in Image J (NIH) software (NIH, MA). Raw images underwent background subtraction using a rolling ball algorithm to minimize background and any potential variance in tissue autofluorescence. To quantify area and intensity of the CSPG-ECM within each brain region (ARC, VMH or RSG cortex) images were thresholded and binarized to create a region of interest (ROI) mask of only the CSPG-ECM. For each brain area, CSPG-ECM ROI area (μm^2) and intensity (sum of all pixel intensities within the ROI) was calculated. This process was automated to minimise bias and to account for differences in brain nuclei size across multiple images. Brain nuclei were defined in accordance with the Paxinos and Franklin mouse brain atlas (http://labs.gaidi.ca/mouse-brain-atlas/). The area and intensity of CSPG-ECM within each region was normalised to the respective control.
as §2

diet-induced obese mice [3] = experiment: I.C.V. PZ6005 and/or S.C. liraglutide: I.P. GTT; assay type: in vivo, C57BL/6j mice; details: day 14; 6 hours fasted; compared with the control treatment
Experimental: as §1

[4] = AAV-gScrambled AgRP-Cas9 mice, 100 μg/animal I.C.V. daily for 10 days

CC(=O)NC1C(OC(C)=O)OC(COC(C)=O)[C@@H](F)C1OC(C)=O (some centres unmarked) [PZ6005, per-O-acetylated-4-F-N-acetylglucosamine]
mass of ingWAT, epiWAT and the liver (diet-induced obese mice [1]; 28-day treatment, compared with control littermates): lower mass | difference in fat mass between the mid- and post-treatment (diet-induced obese mice [1]; 14 days after last PZ6005 dose): no significant difference | energy expenditure and oxygen consumption (diet-induced obese mice [1]; Day 8-Day 11 of the treatment, day and night): consumed more energy | mean percentage change in weight (diet-induced obese mice [1]; day 28, PZ6005 100 μg/animal I.C.V. every other day first 14 days, liraglutide 200 μg/kg/day S.C. 28 days): −13.02±1.15% | positive metabolic outcomes ([2]; AAV-IR AgRP-Cas9 mice): mitigated, at least in part | adiposity [2, 4]: reduced adiposity | body weight [2, 4]: promoted weight loss | caloric intake [2, 4]: attenuated caloric intake | energy expenditure [2, 4]: enhanced energy expenditure | glycaemic control [2, 4]: improved glycaemic control | CSPG-ECM expression in the habenula (CSPG-ECM (neurofibrosis); I.C.V., at the highest dose): only partially attenuated | neurofibrosis within the ARC (WFA immunostaining) (CSPG-ECM (neurofibrosis); obese mice, I.C.V. daily for 10 days): significantly attenuated | CSPG-ECM in other brain areas such as the RSG cortex (CSPG-ECM (neurofibrosis); obese mice, I.C.V. for 10 days): did not reduce | glucose excursion (I.P. GTT) (diet-induced obese mice [3]): reduced glucose excursion
